Data: US5352707A, “Method for treating airway congestion” (Harbor Branch Oceanographic Institution, Inc., priority 1992, dated 1994)
pIC50: −log10 of the molar value.

Assays:
H3 receptor = target: T1, H3 receptor (Cavia porcellus, UniProt Q9JI35); assay: H3 Receptor Binding Assay ([3H]R-α-methylhistamine, guinea pig brain membranes); conditions: 3 nM [3H]R-α-methylhistamine, 30° C., 30 minutes
T1 construct: The source of the H3 receptors in this experiment was guinea pig brain; from tissue; host or cells: guinea pig brain membranes
Experimental: The source of the H3 receptors in this experiment was guinea pig brain. The animals used weighed 400-600 g. The tissue was homogenized using a Polytron in a solution of 50 mM Tris, pH 7.5. The final concentration of tissue in the homogenization buffer was 10% w/v. The homogenates were centrifuged at 1000×g for 10 minutes in order to remove clumps of tissue and debris. The resulting supernatants were then centrifuged at 50,000×g for 20 minutes in order to sediment the membranes, which were next washed 3 times in homogenization buffer (50,000×g for 20 minutes each). The membranes were frozen and stored at -70° C. until needed.
All compounds to be tested were dissolved in DMSO (dimethyl sulfoxide) and then diluted into the binding buffer (50 mM Tris, pH 7.5) such that the final concentration was 2 μg/mL with 0.1% DMSO. Membranes were then added (400 μg of protein) to the reaction tubes. The reaction was started by the addition of 3 nM [^3 H]R-α-methylhistamine (8.8 Ci/mmol) and incubated at 30° C. for 30 minutes. Bound ligand was separated from unbound ligand by filtration, and the amount of radioactive ligand bound to the membranes was quantitated by liquid scintillation spectrometry. All incubations were performed in duplicate and the standard error was less than 10% in all instances.

guinea pig ileum = assay: Guinea Pig Ileum Assay (electrical field stimulated contractions; H3 agonism/antagonism vs Rα-methylhistamine); format: cell-based; conditions: for Guinea Pig Ileum: at 1 μg/ml, 1 μM chlorpheniramine in Tyrodes buffer
Experimental: Male guinea pigs (450-500 g) were sacrificed by cervical dislocation. Portions of the ileum (20-40 cm) were removed and placed in Tyrodes solution (NaCl, 8.0; KCl, 0.2; MgCl2.6H2 O, 0.2; CaCl2. 0.13; NaH2 PO4. 0.06; dextrose, 1.0; NaHCO3, 1.0 g/l). The ilea were cut into 2.5 cm segments, mounted between platinum wire coaxial electrodes and placed in water-jacketed organ baths containing 25 ml of the Tyrodes solution. Bath fluid temperature was maintained at 37° C. and aerated with 95% 02-5%CO2. The muscles were suspended from isometric force transducers (Grass FT023C) under 0.3 g resting tension. Contractions were amplified on a Buxco tension monitor and recorded on a Harvard polygraph. Monophasic rectangular-wave electrical pulses were delivered to the tissues every 60 seconds from a stimulator (model S-48, Grass Instruments Co.). The ileum segments were maximally stimulated with 3 volts at 40 Hz frequency and 1 mseconds duration in 1 pulse train every 60 seconds. The duration of 1 msecond was then decreased by 0.1 msecond until the size of the contraction reached 80% of the maximal response. Once this 80% response was determined it was evoked every 60 seconds throughout the experiment. All experiments were conducted with 1μM of chlorpheniramine present in the Tyrodes buffer.
Rα-methylhistamine inhibits the electrical field stimulated contractions of the guinea pig ileum and was used as the H3 agonist reference standard. H3 agonists were studied for their ability to inhibit the electrical field stimulated contractions and their activity was expressed as a percentage of the maximum Rα-methylhistamine effect. Agonists were tested by addition of logarithmically increasing doses to the bath fluid at intervals of 1 minute. […]
Relative potency for agonists was determined from the pD2 calculations (Furchgott, R.F., The Pharmacology of Vascular Smooth Muscle. Pharm. Rev. 7, 183, 1955.) on 5 separate tissues. Relative potency for antagonists was determined from pA2 calculations (See Furchgott, above) on 15 separate tissues.

T1 sequence (Q9JI35 whole entry): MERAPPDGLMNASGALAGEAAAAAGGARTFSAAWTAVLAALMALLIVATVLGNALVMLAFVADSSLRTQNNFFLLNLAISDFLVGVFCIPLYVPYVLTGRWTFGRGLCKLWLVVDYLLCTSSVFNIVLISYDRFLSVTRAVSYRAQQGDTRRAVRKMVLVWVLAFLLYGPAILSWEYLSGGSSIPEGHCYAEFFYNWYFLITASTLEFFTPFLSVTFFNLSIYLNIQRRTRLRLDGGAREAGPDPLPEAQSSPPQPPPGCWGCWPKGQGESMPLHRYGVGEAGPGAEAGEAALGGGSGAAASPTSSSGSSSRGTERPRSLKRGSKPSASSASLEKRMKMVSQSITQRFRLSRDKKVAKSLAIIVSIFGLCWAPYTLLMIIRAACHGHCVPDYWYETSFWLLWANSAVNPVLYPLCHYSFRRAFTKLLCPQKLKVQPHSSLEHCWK

SMILES | H3 receptor Binding IC50 (H3 receptor) [µg/mL] | Guinea Pig Ileum (guinea pig ileum) | pIC50 (H3 receptor) | activity on the guinea pig ileum (guinea pig ileum)
COC1=C(Br)C(O)C2(C=C1Br)CC(C(=O)NCCc1c[nH]cn1)=NO2 (centres unmarked) [Aerophobin-1] | 4.3 | not active |  | 
CN(C)CCCOc1c(Br)cc(CCN(C)C)cc1Br [Aplysamine-1] |  | antagonist | 6.08 | active on the guinea pig ileum as an H3 -antagonist
